{
  "source": "paper PMC12337130",
  "about": "(Nature microbiology, 2025)",
  "molecules": {"B1": {"name": "GST-vBcl-2 (1–146) with N67D/V117A (domain or fragment)", "chain": "MDEDVLPGEVLAIEGIFMACGLNEPEYLYHPLLSPIKLYITGLMRDKESLFEAMLANVRFHSTTGIDQLGLSMLQVSGDGNMNWGRALAILTFGSFVAQKLSNEPHLRDFALAVLPAYAYEAIGPQWFRARGGWRGLKAYCTQVLT"}},
  "key": {"[1]": {"target": "vBcl-2 (Human gammaherpesvirus 8, UniProt Q76RI8, N67D/V117A)", "experiment": "surface plasmon resonance", "assay_type": "binding"}, "[2]": {"target": "vBcl-2–NM23-H2 complex (Human gammaherpesvirus 8, UniProt Q76RI8, N67D/V117A)", "experiment": "HTRF protein-protein interaction assay", "assay_type": "binding"}, "[3]": {"target": "His-NM23-H2 (human, UniProt P22392 1-152)", "experiment": "AlphaScreen or HTRF"}, "[4]": {"target": "B1", "experiment": "AlphaScreen or HTRF"}},
  "data": [
    {"molecule": "Cc1nc(Nc2nc3ccccc3o2)[nH]c(=O)c1C", "note": "[VBNI-1, 2-(Benzo[d]oxazol-2-ylamino)-5,6-dimethylpyrimidin-4(3H)-one]", "values": [
      {"measurement": "Kd", "setting": "[1]", "result": 875, "unit": "nM"},
      {"measurement": "IC50", "setting": "[2]", "result": "~64", "unit": "nM"}
    ]},
    {"molecule": "B1", "values": [
      {"measurement": "binding result", "setting": "[3]", "result": "binds"}
    ]},
    {"molecule": "EDIIRNIARHLAQVGDSMDR", "note": "[BID BH3 peptide]", "values": [
      {"measurement": "binding result", "setting": "[4]", "result": "binds"}
    ]}
  ]
}
